Like-named read-outs stand apart in the source and are kept apart here.
Columns and labels:
Assay in all cases: acetophenone formation at […] nm, Michaelis-Menten fit
Format in all cases: biochemical
Settings in all cases: 0.1 mM PLP, 0.25% DMSO, 50 mM sodium phosphate pH 8.0, 25°C
At-ATA [1] = biological target: T1, At-ATA (Aspergillus terreus, UniProt Q0C8G1, D224K)
T1 construct: gene ATEG_10023

At-ATA [2] = biological target: T2, At-ATA (Aspergillus terreus, UniProt Q0C8G1, E253A)
T2 construct: gene ATEG_10023

At-ATA [3] = biological target: T3, At-ATA (Aspergillus terreus, UniProt Q0C8G1, E133Q)
T3 construct: gene ATEG_10023

[4] = read-out: Km1-(R)-PEA /, 2.5 mM pyruvate
[5] = read-out: Kmpyruvate /, 2.5 mM 1-(R)-PEA

SMILES: C[C@@H](N)c1ccccc1 [1-(R)-PEA]
- Km (At-ATA [1]; [4]): 140 ± 10 µM
- Km (At-ATA [2]; [4]): 170 ± 20 µM
- Km (At-ATA [3]; [4]): 160 ± 10 µM

SMILES: CC(=O)C(=O)O [pyruvate]
- Km (At-ATA [1]; [5]): 350 ± 20 µM
- Km (At-ATA [2]; [5]): 690 ± 10 µM
- Km (At-ATA [3]; [5]): 500 ± 10 µM

From article PMC8081293 (Frontiers in Chemistry, 2021)
